The results in this text go back to PMC10763615, “Identification and engineering of potent cyclic peptides with selective or promiscuous binding through biochemical profiling and bioinformatic data analysis” (RSC Chemical Biology, 2023).

Like-named read-outs stand apart in the source and are kept apart here.

Test [1] addresses T1, FGF-R1C ECD (Homo sapiens, UniProt P11362).
T1 sequence (P11362 22-376 limits assumed): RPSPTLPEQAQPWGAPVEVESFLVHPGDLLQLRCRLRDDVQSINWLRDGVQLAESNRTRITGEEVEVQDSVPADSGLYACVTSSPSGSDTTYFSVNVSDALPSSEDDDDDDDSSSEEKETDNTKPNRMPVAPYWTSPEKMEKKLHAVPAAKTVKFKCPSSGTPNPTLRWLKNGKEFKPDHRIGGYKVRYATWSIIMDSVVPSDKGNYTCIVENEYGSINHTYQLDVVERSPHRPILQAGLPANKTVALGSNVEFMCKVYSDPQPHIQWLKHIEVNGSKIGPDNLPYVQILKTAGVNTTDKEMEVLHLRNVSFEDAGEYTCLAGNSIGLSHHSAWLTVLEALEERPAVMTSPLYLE
As to the kind of experiment: biochemical. As to the method: (§1) KD affinity binding measurements were obtained by biolayer interferometry (BLI) instruments (Fortebio Octet HTX, or Sartorius Octet RH16 using either 8 or 16 channel mode.
(§2) For single concentration binding experiments, 50 μM peptide stocks in folding buffer were diluted 1:50 in mRNA display selection buffer (PBS pH7.4 supplemented with 0.05% Tween-20 and 0.01% BSA) in either a 96 well black plate, or a 384 well tilted bottom microplate (ForteBio). Biotinylated FGF-R protein was loaded onto Streptavidin-functionalised biosensors (ForteBio) and immersed into ~1 μM peptide to obtain association kinetics curves. Dissociation kinetics curves were obtained by subsequent immersion of ligand-associated loaded sensors into a 1:50 dilution of folding buffer in mRNA display selection buffer. Fitted KD data was adjusted for concentration as determined by UPLC-CAD.
(§3) For accurate multi-concentration KD determination, dilution series of each peptide were made, and association and dissociation kinetics curves were obtained as above for each concentration to fit a multi-point KD binding model. Data collection and analysis was performed using the Octet Instrument Control […]
(§4) concentration assay kinetics curves shown in supplementary Figure S 19-24.

In test [2] the target is T2, FGF-R3C ECD (Homo sapiens, UniProt P22607).
T2 sequence (P22607 23-375 limits assumed): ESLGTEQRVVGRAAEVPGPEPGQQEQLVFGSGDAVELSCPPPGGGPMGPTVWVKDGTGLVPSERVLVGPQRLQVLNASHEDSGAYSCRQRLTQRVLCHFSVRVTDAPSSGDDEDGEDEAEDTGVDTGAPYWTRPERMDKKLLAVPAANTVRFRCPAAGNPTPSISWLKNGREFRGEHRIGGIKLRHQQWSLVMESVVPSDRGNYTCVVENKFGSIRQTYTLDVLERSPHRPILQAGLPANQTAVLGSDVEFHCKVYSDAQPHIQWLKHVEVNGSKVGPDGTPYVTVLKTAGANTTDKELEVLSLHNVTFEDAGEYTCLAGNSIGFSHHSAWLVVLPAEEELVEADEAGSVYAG
Briefly: biochemical. As for the experimental part:
as §1, §2, §3, §4

For test [3], the target named is T3, FGF-R4 ECD (Homo sapiens, UniProt P22455).
T3 construct: DNA constructs for the extracellular domain (ECD) of human FGF-; HPC4 (C); made in house; host or cells: HEK 293-6E
T3 sequence (P22455 22-369 limits assumed): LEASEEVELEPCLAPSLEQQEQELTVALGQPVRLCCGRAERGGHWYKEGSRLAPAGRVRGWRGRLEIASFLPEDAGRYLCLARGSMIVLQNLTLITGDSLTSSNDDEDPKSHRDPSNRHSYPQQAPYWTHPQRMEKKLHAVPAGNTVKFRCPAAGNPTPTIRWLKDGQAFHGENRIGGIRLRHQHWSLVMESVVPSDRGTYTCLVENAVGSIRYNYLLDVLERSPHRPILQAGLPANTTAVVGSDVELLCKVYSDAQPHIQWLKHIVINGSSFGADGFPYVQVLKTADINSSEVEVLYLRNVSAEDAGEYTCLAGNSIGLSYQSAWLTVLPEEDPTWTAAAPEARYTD
Briefly: multi-concentration BLI of purified peptides. It counts as binding. As to the method:
as §1, §2, §3, §4

In test [4] the target is T3, FGF-R4 ECD. As to the kind of experiment: single concentration BLI of crude peptides. The note with it: read-out: KD (4). It counts as binding. Put shortly: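 Biotinylated FGF-R ECD on streptavidin biosensors was dipped into ~1 μM crude peptide in PBS pH7.4 with 0.05% Tween-20 and 0.01% BSA for association, then into buffer for dissociation, and followed by BLI. Fitted KD values were adjusted for peptide concentration measured by UPLC-CAD.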

Test [5] has as its target T1, FGF-R1C ECD. As to the kind of experiment: biochemical. It counts as binding. Further details: DNA constructs for the extracellular domain (ECD) of human FGF-; HPC4 (C); made in house; host or cells: HEK 293-6E. Put shortly: (§5)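 Streptavidin biosensors carrying biotinylated FGF receptor ECD were immersed in peptide (~1 μM for crude single-point runs, a concentration series for purified peptides) and then in peptide-free buffer. KD was obtained by fitting the BLI association and dissociation curves.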

Test [6] has as its target T2, FGF-R3C ECD. Briefly: biochemical. It counts as binding. Further details: DNA constructs for the extracellular domain (ECD) of human FGF-; HPC4 (C); made in house; host or cells: HEK 293-6E. The method, boiled down: as §5
Where [7] appears, read: crude NNK peptides, single concentration BLI (Table S3).
[8] abbreviates: purified trimer-18 library peptides.

On to `CC[C@H](C)[C@@H]1NC(=O)[C@H](CCCCN)NC(=O)[C@H](Cc2ccc(O)cc2)NC(=O)[C@H]([C@@H](C)CC)NC(=O)[C@H](CO)NC(=O)[C@H](C(C)C)NC(=O)[C@H](CC(C)C)NC(=O)[C@@H](NC(=O)[C@H](CCSC)NC(C)=O)CSSC[C@@H](C(=O)NCC(=O)N[C@@H](CO)C(=O)NCC(=O)N[C@@H](CO)C(=O)N[C@@H](CC(=O)O)C(=O)N[C@@H](Cc2ccc(O)cc2)C(=O)N[C@@H](CCCCN)C(=O)N[C@@H](CC(=O)O)C(=O)N[C@@H](CC(=O)O)C(=O)N[C@@H](CC(=O)O)C(=O)N[C@@H](CC(=O)O)C(=O)N[C@@H](CCCCN)C(N)=O)NC(=O)[C@H]([C@@H](C)O)NC(=O)[C@H](CCCNC(=N)N)NC(=O)[C@H](CCSC)NC1=O` [4.1], for which the Kd at FGF-R1C ECD [1] is greater than 1 µM; at FGF-R3C ECD [2], greater than 1 µM; on FGF-R4 ECD [3] (purified NNK library peptides) it was greater than 1 µM; at FGF-R4 ECD [4] (setting [7]), 0.193 µM; on FGF-R1C ECD [5], greater than 10 µM; at FGF-R3C ECD [6] it was 6.12 µM.
For `CSCC[C@H](NC(C)=O)C(=O)N[C@H]1CSSC[C@@H](C(=O)NCC(=O)N[C@@H](CO)C(=O)NCC(=O)N[C@@H](CO)C(=O)N[C@@H](CC(=O)O)C(=O)N[C@@H](Cc2ccc(O)cc2)C(=O)N[C@@H](CCCCN)C(=O)N[C@@H](CC(=O)O)C(=O)N[C@@H](CC(=O)O)C(=O)N[C@@H](CC(=O)O)C(=O)N[C@@H](CC(=O)O)C(=O)N[C@@H](CCCCN)C(N)=O)NC(=O)[C@H](CCCNC(=N)N)NC(=O)[C@H](CC(C)C)NC(=O)[C@H](CCCCN)NC(=O)[C@H]([C@@H](C)O)NC(=O)[C@H](C(C)C)NC(=O)[C@H](CCCCN)NC(=O)[C@H](Cc2ccc(O)cc2)NC(=O)[C@H](Cc2c[nH]c3ccccc23)NC(=O)[C@H]([C@@H](C)O)NC(=O)[C@H](C(C)C)NC1=O` [4.4], the Kd is greater than 1 µM at FGF-R1C ECD [1]; greater than 1 µM on FGF-R3C ECD [2]; greater than 1 µM on FGF-R4 ECD [3] (purified NNK library peptides); 0.057 µM at FGF-R4 ECD [4] (setting [7]); greater than 10 µM on FGF-R1C ECD [5]; greater than 10 µM on FGF-R3C ECD [6].
As to `CSCC[C@H](NC(C)=O)C(=O)N[C@H]1CSSC[C@@H](C(=O)NCC(=O)N[C@@H](CO)C(=O)NCC(=O)N[C@@H](CO)C(=O)N[C@@H](CCC(=O)O)C(=O)N[C@@H](CCC(=O)O)C(=O)NCC(=O)N[C@@H](CO)C(=O)NCC(=O)N[C@@H](CO)C(=O)N[C@@H](CC(=O)O)C(=O)N[C@@H](Cc2ccc(O)cc2)C(=O)N[C@@H](CCCCN)C(=O)N[C@@H](CC(=O)O)C(=O)N[C@@H](CC(=O)O)C(=O)N[C@@H](CC(=O)O)C(=O)N[C@@H](CC(=O)O)C(=O)N[C@@H](CCCCN)C(N)=O)NC(=O)[C@H](CCCNC(=N)N)NC(=O)[C@H](CCCNC(=N)N)NC(=O)[C@H](Cc2c[nH]c3ccccc23)NC(=O)[C@H](CC(C)C)NC(=O)[C@H](CCCCN)NC(=O)[C@H](Cc2ccc(O)cc2)NC(=O)[C@H](Cc2ccc(O)cc2)NC(=O)[C@H](Cc2ccc(O)cc2)NC(=O)[C@H](CC(C)C)NC(=O)[C@H]([C@@H](C)O)NC(=O)[C@H]([C@@H](C)O)NC1=O` [4.9], the Kd is greater than 1 µM at FGF-R1C ECD [1]; greater than 1 µM at FGF-R3C ECD [2]; greater than 1 µM at FGF-R4 ECD [3] (setting [8]); 0.001 µM on FGF-R4 ECD [4] (crude T18 selection 1 (1:1:1) peptides, single concentration BLI (Table S4)); 0.699 µM on FGF-R1C ECD [5]; 2.25 µM at FGF-R3C ECD [6].
For `CSCC[C@H](NC(C)=O)C(=O)N[C@H]1CSSC[C@@H](C(=O)NCC(=O)N[C@@H](CO)C(=O)NCC(=O)N[C@@H](CO)C(=O)N[C@@H](CC(=O)O)C(=O)N[C@@H](Cc2ccc(O)cc2)C(=O)N[C@@H](CCCCN)C(=O)N[C@@H](CC(=O)O)C(=O)N[C@@H](CC(=O)O)C(=O)N[C@@H](CC(=O)O)C(=O)N[C@@H](CC(=O)O)C(=O)N[C@@H](CCCCN)C(N)=O)NC(=O)[C@H](CCCNC(=N)N)NC(=O)[C@H](CCCNC(=N)N)NC(=O)[C@H](Cc2c[nH]cn2)NC(=O)[C@H](CO)NC(=O)[C@H](CC(C)C)NC(=O)[C@H](CC(C)C)NC(=O)[C@H](Cc2ccc(O)cc2)NC(=O)[C@H](Cc2ccc(O)cc2)NC(=O)[C@H](Cc2ccc(O)cc2)NC(=O)[C@H](CC(C)C)NC(=O)[C@H](Cc2c[nH]cn2)NC(=O)[C@H](CCC(=O)O)NC1=O` [4.23], the Kd at FGF-R1C ECD [1] is greater than 1 µM; at FGF-R3C ECD [2] it was greater than 1 µM; on FGF-R4 ECD [3] (setting [8]) it was 0.003 µM.
For the molecule `CSCC[C@H](NC(C)=O)C(=O)N[C@H]1CSSC[C@@H](C(=O)NCC(=O)N[C@@H](CO)C(=O)NCC(=O)N[C@@H](CO)C(=O)N[C@@H](CC(=O)O)C(=O)N[C@@H](Cc2ccc(O)cc2)C(=O)N[C@@H](CCCCN)C(=O)N[C@@H](CC(=O)O)C(=O)N[C@@H](CC(=O)O)C(=O)N[C@@H](CC(=O)O)C(=O)N[C@@H](CC(=O)O)C(=O)N[C@@H](CCCCN)C(N)=O)NC(=O)[C@@H]2CCCN2C(=O)[C@H](CCCNC(=N)N)NC(=O)[C@H](Cc2c[nH]c3ccccc23)NC(=O)[C@@H]2CCCN2C(=O)[C@H](CCC(=O)O)NC(=O)[C@H](Cc2c[nH]cn2)NC(=O)[C@H](Cc2c[nH]c3ccccc23)NC(=O)[C@H](Cc2ccc(O)cc2)NC(=O)[C@H](C)NC(=O)[C@H](CCCCN)NC(=O)[C@H]([C@@H](C)O)NC(=O)[C@H](Cc2ccc(O)cc2)NC1=O` [4.24], the Kd at FGF-R1C ECD [1], at FGF-R3C ECD [2] and on FGF-R4 ECD [3] (setting [8]) was greater than 1 µM throughout.
Take `CSCC[C@H](NC(C)=O)C(=O)N[C@H]1CSSC[C@@H](C(=O)NCC(=O)N[C@@H](CO)C(=O)NCC(=O)N[C@@H](CO)C(=O)N[C@@H](CC(=O)O)C(=O)N[C@@H](Cc2ccc(O)cc2)C(=O)N[C@@H](CCCCN)C(=O)N[C@@H](CC(=O)O)C(=O)N[C@@H](CC(=O)O)C(=O)N[C@@H](CC(=O)O)C(=O)N[C@@H](CC(=O)O)C(=O)N[C@@H](CCCCN)C(N)=O)NC(=O)[C@H](CCC(N)=O)NC(=O)[C@H](CCCCN)NC(=O)[C@H](Cc2ccccc2)NC(=O)[C@H](CC(C)C)NC(=O)[C@H](CC(C)C)NC(=O)[C@H](Cc2ccc(O)cc2)NC(=O)[C@H](Cc2ccc(O)cc2)NC(=O)[C@H](Cc2ccc(O)cc2)NC(=O)[C@H](CC(C)C)NC(=O)[C@H](Cc2c[nH]cn2)NC(=O)[C@H](CCCCN)NC(=O)[C@H](CC(N)=O)NC1=O` [4.25]: the results for the Kd at FGF-R1C ECD [1], on FGF-R3C ECD [2] and at FGF-R4 ECD [3] (setting [8]) were greater than 1 µM, greater than 1 µM and 0.003 µM, respectively.

As usually defined, the Kd is the constant that tells how readily two partners part at equilibrium.
